{"source": "paper PMC3985299", "about": "“Single Ascending Dose Safety and Pharmacokinetics of CDRI-97/78: First-in-Human Study of a Novel Antimalarial Drug” (Malaria Research and Treatment, 2014)", "experiment": "Single oral dose (200 mg) pharmacokinetic study, plasma LC-MS/MS, noncompartmental analysis", "assay_type": "in vivo, human", "conditions": "oral 200 mg", "method": "For pharmacokinetic (PK) study, eligible participants were admitted and housed in the clinical pharmacology unit an evening prior to the PK study. A standard dinner was served and a fasting condition for at least 10 hrs prior to dosing and 4 hrs after dosing was ensured. A peripheral forearm vein was cannulated for sampling for the PK analysis. 200 mg of the study drug was administered with 300 mL of water. The time of actual dose administration to the nearest minute was recorded. 2.5 mL of blood was collected from the indwelling cannula at 0 (before dose), 0.25, 0.5, 0.75, 1, 1.5, 2, 4, 6, 8, 12, 18, 24, 48, 72, 96, 120, and 144 hrs (after dose). 10 mL of additional blood was collected at 0 (before dose) and 24 hr (after dose) for laboratory parameters for safety assessment and PK control sample. A time window of ±2 minutes was permitted for collecting the post dose samples from the scheduled time for PK analysis. Plasma was separated from blood sample intended for PK analysis, within 1 hour of blood sampling, by centrifugation at 2000 rpm for 10 min at 4°C. Samples were stored at −80°C pending transportation. Heparinised blood samples were transported to the laboratory within 7 days of collection. Quantitative analyses of clinical phase ascending dose and single dose PKs samples were done at GLP lab of Pharmacokinetics and Metabolism Division, CDRI, Lucknow, India. α-Arteether was used as an internal standard and all the analyses were performed as per the published method by Singh et al. 2009 [19]. Acceptance criteria for analytical runs were fixed as per internationally approved guidelines. Data acquisition and quantitation were performed using analyst software version 1.4 (Applied Biosystems, MDS SCIEX Toronto, Canada). PK parameters were estimated by using WinNonlin software (Version 1.5, Pharsight Corporation, Mountain View, CA). Oral data were best fitted in noncompartmental model. The individual plasma concentration-time profiles were subjected to noncompartmental analysis to determine various PK parameters. The PK parameters included the terminal elimination half-life (T 1/2), maximum plasma concentration (C max), time to reach maximum plasma concentration (T max), area under the curve (AUC0–∞), and mean residence time (MRT)."}
{"smiles": "C=C(c1ccc(OC(C)(C)COC(=O)CCC(=O)O)cc1)C1COC2(OO1)C1CC3CC(C1)CC2C3", "note": "(centres unmarked) [CDRI 97/78, Mono[2methyl2[3(1spiro[tricycle[3.3.1.13,7]decane2,3′-[1,2,4]trioxan] 6′-ylethenyl)phenoxy]propyl] ester]", "values": [{"measurement": "Absorption", "result": "rapidly absorbed"}, {"measurement": "Plasma concentration of parent molecule", "setting": "most of the volunteers", "result": "below the limit of quantitation"}]}
